The record followed here is patent US20130171198A1, “ANTIMICROBIAL AND VULNERARY ACTION PHARMACEUTICAL COMPOSITION FOR EXTERNAL APPLICATION AND ITS PRODUCTION PROCESS” (priority 2010, published 2013).

Data set [1] is described as follows: Incision model, guiney pigs, external application of powder. The following applies: for Incision length (cm) Me: powder form, external application daily. The class given is in vivo. The procedure: (§1) The experiments were conducted using adult rabbits “Chinchilla” (males, weight 3-3.5 kg) and random bred guiney pigs (males, weight 0.8-0.9 kg) according to the “Regulations for test animals use” (USSR Ministry of health order supplement #755 from 12.08. 1977). There have been made several incisions with a sterile scalpel on the left and right side of the depilated coupling area (1.5% novocain solution was used for local anesthesia); incision 2 cm long and 0.8 cm deep with muscular layer seizure for guiney pigs and 2 cm long and 1 cm deep with muscular layer seizure for rabbits. Each day in 8 days period (starting with the very first day) the wounds of the animals control group was bathed with a sterile normal saline solution, were covered with a sterile tissue fixed with a plaster. The wounds of the test group animals were bathed with a sterile saline solution, then dried and then dusted with fosfomycin sterile powder uniform layer (2-3 mm) or a same layer pharmaceutical composition (for guiney pigs), the wounds of the test rabbits were irrigated with a sterile 2.5% fosfomycin solution or sterile 5% pharmaceutical composition suspension, after that they were dried and covered with a sterile tissue fixed with a plaster. The regenerative process dynamics was monitored during 9 days. The medics measured the length of the wound open area and made a visual evaluation of wound edges and walls, the presence and character of the exudates, necrosis presence. The test results can be seen in Tables No 2 and No 3. The statistical data processing has been made with a program Statistica 6.0. The experimental data are presented as median (Me), Low and High quartile (LQ-HQ), the difference authenticity has been calculated using Student t-criterion with p<0.05 values.

Data set [2] in a line: Incision model, rabbits, external application of solution/suspension. Type of data set: in vivo. The following applies: for Incision length (cm) Me: 2.5% fosfomycin solution or 5% composition suspension. The procedure: as §1
The test system of data set [3] is infected S. aureus thermal burn. As to the kind of experiment: Infected thermal burn model, guiney pigs. The following applies: for Necrosis area (cm^2) / Thermal burn area (cm^2): 2.5% solution or 5% suspension. The class given is in vivo. The procedure: The experiments were conducted using adult rabbits “Chinchilla” (males, weight 3-3.5 kg) and random bred guiney pigs (males, weight 0.8-0.9 kg) according to the “Regulations for test animals use” (USSR Ministry of health order supplement #755 from 12.08. 1977). There have been made several skin integument burnings with a warmed up on the burner flame metallic applicator on the left and right side of the depilated coupling area (1.5% novocain solution was used for local anesthesia) by attaching it to the skin and holding for 40 seconds. In the center of the ambustial area there has been intracutaneously inserted Staphylococcus aureus (ATCC No 25923 F-49) daily suspension with a 0.1 ml volume in a 10^10 CFU/ml dosage. Each day in 13 days period (starting with the very first day) the burnings of the animals control group was bathed with a sterile normal saline solution, dried and covered with a sterile tissue fixed with a plaster. The burnings of the test animals were irrigated with a sterile 2.5% fosfomycin solution or sterile 5% pharmaceutical composition suspension, after that they were dried and covered with a sterile tissue fixed with a plaster. The burnings condition dynamics was monitored during 14 days. The medics measured the burning wound surface and necrosis area in the center of the burning wound. You may see the results in the table No 4. The statistical data processing has been made with a program Statistica 6.0. The experimental data are presented as median (Me), Low and High quartile (LQ-HQ), the difference authenticity has been calculated using Student t-criterion with p<0.05 values.

The nature of data set [4]: Fosfomycin sorption by BHSiO2 particles. The class given is physicochemical. The text has this: Fosfomycin sorption rate by BHSiO2 particles was 20-25%.
The mark [5] stands for this setting: 2.5% solution / 5% water suspension.

Each structure is given as a SMILES string.

Regarding `C[C@@H]1O[C@@H]1P(=O)(O)O` [Fosfomycin, fosfomycin], the “Incision length (cm) Me” value in data set [1] (Day 2) is reported as 0.9 cm; in data set [1] (Day 6) it was 0.5 cm; in data set [1] (Day 9), 0.3 cm; in data set [2] (Day 2), 0.5 cm; in data set [2] (Day 6) it was 0.4 cm; in data set [2] (Day 9) it was 0.25 cm. Also, the “Incisions regeneration process versus control group” value in data set [1] (powder forms) and in data set [2] (setting [5]) was “authentically increase incisions regeneration process comparing to the control group” each time. Besides, in data set [3] (setting [5]), the “Infected S. aureus thermal burn regeneration process versus control group” value is “authentically increase infected S. aureus thermal burn regeneration process comparing to the control group”. Besides, the “Necrosis area (cm^2)” value turned out to be 0.0 cm^2 in data set [3] (Day 2), 0.3 cm^2 in data set [3] (Day 6), 0.25 cm^2 in data set [3] (Day 9) and 0.2 cm^2 in data set [3] (Day 14). Also, the “Thermal burn area (cm^2)” value in data set [3] (Day 2) is on record as 1.2 cm^2; in data set [3] (Day 6), 0.8 cm^2; in data set [3] (Day 9), 0.7 cm^2; in data set [3] (Day 14), 0.4 cm^2. Further, the “Fosfomycin sorption rate by BHSiO2 particles” value in data set [4] is on record as 20-25%.
